Measured values as given in ChEMBL document CHEMBL1201862, “PubChem BioAssay data set” (2004).
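In this assay, cells in 96-well plates receive the compound at five concentrations for 48 hours. Endpoints are linearly interpolated between the surrounding concentrations. At the GI50, growth is halved.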 Calls of active or inactive are those of the source. No stated cut-off is given here; in the data, active = GI50 up to about 1.1 µM and inactive = higher.

Key:
Assay in all cases: inhibition of tumour cell growth, NCI panel, 48 h
LXFL 529 = tested on: LXFL 529
XF498 = tested on: XF498
DMS-273 = tested on: DMS-273
HOP-18 = tested on: HOP-18
DMS-114 = tested on: DMS-114
RXF 631 = tested on: RXF 631
KM-20L2 = tested on: KM-20L2
T47D = tested on: T47D
BT-549 = tested on: BT-549

Measured: GI50

CSc1nc(NC2OCC(OC(C)=O)C(OC(C)=O)C2OC(C)=O)c(/N=C(\C)C(C)=O)c(=O)n1C (centres undefined)
inactive: LXFL 529 > 100 µM | XF498 > 100 µM | DMS-273 > 100 µM | HOP-18 > 100 µM | DMS-114 > 100 µM | RXF 631 > 100 µM | KM-20L2 > 100 µM

COC(=O)C(=O)C(C(=O)C(=O)Nc1ccccc1C(N)=O)c1nc2ccc([N+](=O)[O-])cc2nc1O (centres undefined)
inactive: LXFL 529 > 100 µM | XF498 > 100 µM | DMS-273 > 100 µM | HOP-18 > 100 µM | RXF 631 > 100 µM | KM-20L2 > 100 µM

O=C(CC1SC(Nc2ccccc2Cl)=NC1=O)Nc1ccc(Cl)cc1Cl (centres undefined)
inactive: LXFL 529 > 100 µM | XF498 > 100 µM | HOP-18 > 100 µM | DMS-114 78.2 µM | RXF 631 > 100 µM | KM-20L2 > 100 µM

C1=CC2CCC1CN2CCC1CNc2ccccc21 (centres undefined)
inactive: LXFL 529 > 100 µM | XF498 52.7 µM | DMS-273 > 100 µM | HOP-18 > 100 µM | DMS-114 > 100 µM | KM-20L2 > 100 µM

C=CCn1cc(C(=O)NC(=O)NCCCCCOC(=O)CCCCCCCCCCC(=O)OCCCCCNC(=O)NC(=O)c2cn(CC=C)c(=O)n(C)c2=O)c(=O)n(C)c1=O
inactive: LXFL 529 > 100 µM | XF498 > 100 µM | DMS-273 > 100 µM | HOP-18 71.8 µM | DMS-114 > 100 µM | KM-20L2 > 100 µM

Cc1ccccc1-n1c(C)nc(-c2ccccc2)cc1=O
inactive: LXFL 529 > 100 µM | DMS-273 > 100 µM | HOP-18 > 100 µM | DMS-114 > 100 µM | RXF 631 > 100 µM | KM-20L2 > 100 µM

CCCCCCCCCCCCCCCCCc1nnc(N)o1
inactive: LXFL 529 > 100 µM | XF498 > 100 µM | DMS-273 > 100 µM | RXF 631 > 100 µM | KM-20L2 > 100 µM

COc1cc(C2[C@H]3C(=O)N(c4ccc(Cc5ccc(N6C(=O)[C@@H]7ON(c8ccccc8)C(c8cc(OC)c(OC)c(OC)c8)[C@@H]7C6=O)cc5)cc4)C(=O)[C@H]3ON2c2ccccc2)cc(OC)c1OC (some centres undefined)
inactive: DMS-273 > 100 µM | HOP-18 > 100 µM | DMS-114 > 100 µM | RXF 631 > 100 µM | KM-20L2 > 100 µM

CCOC(=O)Cc1nc2ccc3c(c2nc1O)C(=O)c1ccccc1C3=O
inactive: LXFL 529 47.9 µM | XF498 52.8 µM | DMS-273 40.5 µM | HOP-18 16 µM | DMS-114 20.5 µM | RXF 631 39.5 µM | KM-20L2 > 100 µM

Cc1cc(Cl)ccc1Nc1nc2c(s1)C(=O)c1ccccc1C2=O
inactive: LXFL 529 3.67 µM | T47D 2.02 µM | BT-549 1.53 µM | DMS-273 2.52 µM | HOP-18 3 µM | DMS-114 2.2 µM | RXF 631 6.46 µM | KM-20L2 18.9 µM

COc1cccc(-c2cc(=O)c3cc(C)c(C)c(C(=O)O)c3o2)c1
inactive: LXFL 529 > 100 µM | XF498 > 100 µM | DMS-273 > 100 µM | DMS-114 > 100 µM | RXF 631 > 100 µM | KM-20L2 > 100 µM

Cc1ccc(C(=O)Nc2ccc(S(=O)(=O)O)c3cc(S(=O)(=O)O)cc(S(=O)(=O)O)c23)cc1NC(=O)c1cccc(NC(=O)Nc2cccc(C(=O)Nc3cc(C(=O)Nc4ccc(S(=O)(=O)O)c5cc(S(=O)(=O)O)cc(S(=O)(=O)O)c45)ccc3C)c2)c1 [SURAMIN]
inactive: LXFL 529 > 100 µM | XF498 27 µM | T47D > 100 µM | BT-549 95.7 µM | DMS-273 39.8 µM | HOP-18 > 52.4 µM | DMS-114 28.6 µM | KM-20L2 34.6 µM

COC(=O)CCC(=O)CC1CC(=O)C2CCCN12 (centres undefined)
inactive: LXFL 529 > 100 µM | XF498 > 100 µM | DMS-273 > 100 µM | HOP-18 > 100 µM | DMS-114 > 100 µM | KM-20L2 > 100 µM

Nc1cc2c3c(cccc3c1)C(=O)N(CCN1CCN(CCN3C(=O)c4cccc5cc(N)cc(c45)C3=O)CC1)C2=O
inactive: LXFL 529 67 µM | XF498 > 100 µM | DMS-273 > 100 µM | HOP-18 > 100 µM | DMS-114 > 100 µM | RXF 631 > 100 µM | KM-20L2 > 100 µM

COc1ccc(/C=C\c2cc(OC)c(OC)c(OC)c2)cc1OCC(=O)O
inactive: LXFL 529 6.55 µM | BT-549 13.5 µM | DMS-273 6.22 µM | HOP-18 > 100 µM | DMS-114 4.16 µM | RXF 631 > 100 µM | KM-20L2 > 100 µM

Cc1ccc(Oc2ccc([N+](=O)[O-])cc2[N+](=O)[O-])c(C)c1
inactive: LXFL 529 41 µM | XF498 42.1 µM | DMS-273 28.1 µM | DMS-114 26.2 µM | RXF 631 21.4 µM | KM-20L2 > 10 µM

Cc1ccccc1C(=O)Oc1ccc(Oc2ccccc2)cc1
inactive: LXFL 529 > 100 µM | XF498 > 100 µM | DMS-273 > 100 µM | HOP-18 > 100 µM | DMS-114 > 100 µM | KM-20L2 > 100 µM

COC(=O)C12CC3CC(C1)CC(C(=O)OC)(C3)C2
inactive: LXFL 529 > 100 µM | XF498 > 100 µM | DMS-273 > 100 µM | HOP-18 > 100 µM | DMS-114 > 100 µM | KM-20L2 > 100 µM

CC1(C)CC(=O)C(CC2C(=O)CCCC2=O)C(=O)C1
inactive: LXFL 529 > 100 µM | XF498 33.2 µM | DMS-273 > 100 µM | HOP-18 > 100 µM | DMS-114 > 100 µM | KM-20L2 > 100 µM

O=c1nc(N2CCCC2)nc(N2CCCC2)s1
inactive: LXFL 529 > 100 µM | XF498 > 100 µM | DMS-273 > 100 µM | HOP-18 > 100 µM | DMS-114 > 100 µM | RXF 631 > 100 µM | KM-20L2 > 100 µM

COc1cc(-c2nnc3n2NC=C(C(=O)O)S3)cc(OC)c1OC
inactive: LXFL 529 > 71.6 µM | XF498 > 100 µM | DMS-273 > 60.3 µM | HOP-18 > 70.1 µM | DMS-114 > 56.5 µM | RXF 631 > 100 µM | KM-20L2 > 59.2 µM

Cn1cnc(S[C@H]2[C@H]3C(=O)C=C4S[C@H]5C[C@]42C2=C(N5)C(=O)c4[nH]cc5c4C2=[N+]3CC5)c1C[C@H](N)C(=O)O
inactive: LXFL 529 14.1 µM | XF498 15.3 µM | DMS-273 12.7 µM | HOP-18 52.1 µM | DMS-114 2.52 µM | KM-20L2 4.47 µM

Cc1ccc(C)c(NC(=O)CC2SC(Nc3ccccc3Cl)=NC2=O)c1 (centres undefined)
inactive: LXFL 529 74.3 µM | XF498 > 100 µM | DMS-273 > 100 µM | HOP-18 > 100 µM | DMS-114 29.9 µM | RXF 631 > 100 µM | KM-20L2 > 100 µM

Cc1cnc[nH]c1=O
inactive: LXFL 529 > 100 µM | DMS-273 > 100 µM | HOP-18 > 100 µM | DMS-114 > 100 µM | RXF 631 > 100 µM | KM-20L2 > 100 µM

COc1ccc(-c2cc(=O)c3c(O)c(OC)c(O)c(OC)c3o2)cc1OC
inactive: LXFL 529 61.1 µM | XF498 78.3 µM | DMS-273 54.1 µM | HOP-18 54.3 µM | DMS-114 > 100 µM | KM-20L2 > 100 µM
